For one series, the system named is mice. To be noted: subcutaneous or oral administration, tail-flick test or hot-plate test; cited from earlier work. (Thermal pain tests record how soon the animal reacts.)
The test system of another series is opioid receptors. As to conditions: guinea pig small intestine, via opioid receptors; cited from earlier work.
For series [1], the target named is hMOR (human μ-opioid receptors) (Homo sapiens, UniProt P35372). Description: hMOR agonist activity (% DAMGO). It counts as biochemical.
Chain of hMOR (human μ-opioid receptors) (P35372 whole entry): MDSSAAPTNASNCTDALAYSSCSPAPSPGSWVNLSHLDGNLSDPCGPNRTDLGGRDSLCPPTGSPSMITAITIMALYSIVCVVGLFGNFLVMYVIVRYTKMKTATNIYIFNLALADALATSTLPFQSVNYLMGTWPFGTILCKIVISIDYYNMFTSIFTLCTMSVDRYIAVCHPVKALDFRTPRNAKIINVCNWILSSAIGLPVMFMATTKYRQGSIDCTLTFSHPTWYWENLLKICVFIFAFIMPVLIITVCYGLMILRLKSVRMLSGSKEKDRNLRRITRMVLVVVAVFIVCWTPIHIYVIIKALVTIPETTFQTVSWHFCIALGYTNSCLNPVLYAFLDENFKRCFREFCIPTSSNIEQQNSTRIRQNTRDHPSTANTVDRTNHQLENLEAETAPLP
Series [2] can be described thus: Metabolic stability test, human liver microsome. To be noted: for Metabolic stability Ms human (% remaining): human liver microsomal fraction, 37° C., 30 minutes, NADPH; for metabolic stability compared to formula (III), in words: in vitro metabolic stability test using liver microsome. It is filed as in vitro ADME. The text has this: (§1) Liver microsome was used and subjected to a reaction with MGM-30 or MGM-29 for a predetermined time. A sample subjected to the reaction was compared to a sample not subjected to the reaction to calculate a residual ratio for evaluating a degree of a compound that was metabolized in liver. MGM-9 was used as a sample for comparison and evaluated by the same method.
(§2) Commercially available pooled human liver microsome (manufactured by Xenotech) was used as human liver microsome. Pooled rat liver microsome prepared from rat liver by a method known per se was used as rat liver microsome.
(§3) A metabolic stability test was specifically performed as described below. First, a test compound was subjected to a reaction (oxidative reaction) at 37° C. for 0 minutes or 30 minutes in 0.2 mL of a buffer (50 mmol/L tris-HCl pH 7.4, 150 mmol/L potassium chloride, 10 mmol/L magnesium chloride) containing 0.5 mg protein/mL of liver microsome in the presence of 1 mmol/L nicotinamide adenine dinucleotide phosphate (hereinafter abbreviated as NADPH). After the reaction, 50 μL of the reaction liquid was added to 100 μL of a solution of methanol/acetonitrile=1/1 (volume/volume: hereinafter abbreviated as v/v), followed by mixing and centrifugation at 3,000 rpm for 15 minutes. The test compound in the centrifugation supernatant was quantified by liquid chromatograph/tandem mass spectrometry (LC/MS/MS). Then, the amount of the compound at the start of the reaction was defined as 100%, and the residual ratio of the test compound after the reaction was calculated. A hydrolysis reaction was performed in the absence of NADPH, and a glucuronidation reaction was performed in the presence of 5 mM UDP-glucuronic acid in place of NADPH. Then, the same operation was performed.
(Liver microsomes are a subcellular fraction often used to study metabolism.)

The nature of series [3]: Metabolic stability test, rat liver microsome. It counts as in vitro ADME. As to conditions: rat liver microsomal fraction, 37° C., 30 minutes, NADPH.
Source text: as §1, §2, §3

The next series deals with T1, human μ-opioid receptors (Homo sapiens, UniProt P35372).
T1 construct: purchased PerkinElmer; host or cells: CHO-K1 cells (membrane fraction)
T1 sequence (P35372 whole entry): as above
Briefly: Human μ-opioid receptor binding test with [3H]-DAMGO. As to conditions: for Ki: [3H]-DAMGO 1 nM, CHO-K1 membrane fraction expressing human μ-opioid receptor, read-out: hMOR binding Ki. As to the method:
The binding of each of MGM-30 and MGM-29 to human μ-opioid receptors was evaluated through use of a μ-opioid receptor ligand DAMGO ([D-Ala(2), N-Me-Phe(4), Gly-ol(5)] enkephalin acetate salt). MGM-9 was used as a sample for comparison and evaluated by the same method.
A cell membrane fraction of CHO-K1 cells expressing human μ-opioid receptor gene (manufactured by PerkinElmer) was used as a reagent. The human μ-opioid receptor-expressing cell membrane fraction was diluted to 1 mg/mL or 100 μg/mL with 50 mM Tris-HCl (pH 7.4), and then 1 mL of the dilution was dispensed in each of screw-capped vials, cryopreserved at −80° C., and dissolved before use. DAMGO was prepared at 1 mM with dimethylsulfoxide (hereinafter abbreviated as DMSO), and then dispensed in each of screw-capped vials, cryopreserved at −20° C., and dissolved before use.
A human μ-opioid receptor binding test was performed through use of the human μ-opioid receptor-expressing cell membrane fraction and [^3H]-labeled DAMGO (DAMGO, [TYROSYL-3,5-3H], manufactured by PerkinElmer: hereinafter referred to as [^3H]-DAMGO). Specifically, 10 μL of [^3H]-DAMGO (final concentration: 1 nM) diluted to 50 nM with 50% ethanol was added to 10 μL of a test compound solution obtained by diluting each of MGM-30, MGM-29, and MGM-9 with DMSO so as to have a final concentration of from 0.1 nM to 10,000 nM. 480 μL of the μ-opioid receptor-expressing cell membrane fraction diluted to 40 μg/mL with binding assay buffer (10 mM MgCl2, 50 mM Tris-HCl, 0.2% BSA, pH 7.4) was further added, followed by mixing, and the mixture was then subjected to a reaction at 27° C. for 2 hours. The same tests were performed for measurement of total binding activity by using 10 μL of DMSO in place of the test compound, and for measurement of μ-opioid receptor non-specific binding activity by using 10 μL of 1 mM DAMGO (final concentration: 20 μM) in place of the test compound. The binding reaction was terminated by suction filtration with a GF/C filter (manufactured by Whatman) preimmersed in 0.5% polyethylene imine. The filter was washed four times with 2.5 mL of a washing buffer (10 mM Tris-HCl, pH 7.4), and radioactivity remaining in the filter was measured. Then, a dissociation constant (Kd value) of [^3H]-DAMGO for the μ-opioid receptor-expressing cell membrane fraction was calculated by Scatchard plot analysis.
IC50 value was calculated, which is a test compound concentration at which the specific binding of [^3H]-DAMGO to human μ-opioid receptors was inhibited by 50%, by using analysis software XLfit™ ([…]). Then, an inhibition constant (Ki value) was calculated using the following equation: Ki=IC50/(1+S), S=(Concentration of [^3H]-DAMGO/Kd of [^3H]-DAMGO).

The next series has as its system ddY strain mice. Description: Mouse tail-flick test, subcutaneous administration. It counts as in vivo. To be noted: for analgesic action in words: s.c., 0.3, 1 and 3 mg/kg; for time after administration at which the analgesic action returned to the vehicle level: any of the doses. As to the method:
The results of the test are represented by dose-response curves. […] In addition, a similar test was performed by using a vehicle as a negative control. The analgesic action of each compound was quantified by using a percentage of maximum possible effect (% MPE). % MPE was calculated from the following equation: % MPE=[(Post-drug latency−Pre-drug latency)/(Cut-off time−Pre-drug latency)]×100. The abscissa axis of FIG. 1 indicates a time after the administration of each compound (time after injection (min)).
Six-week-old male ddY strain mice (Japan SLC, Inc.) were used.
MGM-30 and MGM-29 were each dissolved in 25 mM phosphate buffer (pH 5.3 to 5.5). MGM-9, which was a known mitragynine derivative compound, was used as a sample for comparison. MGM-9 was obtained by synthesis according to a method similar to a method described in each of the previous reports (Patent Literatures 2 and 3 and Non Patent Literature 3).
A tail-flick test is a method of evaluating the analgesic effect of a compound, which comprises applying a nociceptive stimulus, for example, a heat stimulus, to the tail of a mouse, and then using as an indicator flight response elicited by the stimulus. Since a mouse respond to the heat stimulus by flicking or moving its tail out of the path of the stimulus, the tail is exposed to a photocell located in a tail-flick analgesia meter (Ugo Basile Tail-flick Unit 7360, Ugo Basile) immediately below the tail. A reaction time is automatically recorded.
Before treatment with the compounds, the vehicle, or physiological saline, a nociceptive threshold was measured three times, and the mean of the reaction time was used as a pre-drug latency for each mouse. The intensity of the heat stimulus was adjusted to such an intensity that mice flicked the tail upward within from 2 seconds to 4 seconds, and a time for heat treatment was set to a maximum stimulation time (cut-off time) of 10 seconds in order to prevent tissue damage. Each of the compounds was subcutaneously administered to mice in a volume of 10 mL/kg with doses 0.3 mg/kg, 1 mg/kg, and 3 mg/kg. A latency after the administration (post-drug latency) was measured 15 minutes, 30 minutes, 45 minutes, 60 minutes, 90 minutes, 120 minutes, and 180 minutes after the administration. The vehicle used for diluting the compounds was used as a control in place of the compounds, and was administered in the same volume. The analgesic action of each compound was quantified through use of a ratio to the maximum drug efficacy, i.e., a percentage of maximum possible effect (hereinafter abbreviated as % MPE) % MPE was calculated from the following equation: % MPE=[(Post-drug latency−Pre-drug latency)/(Cut-off time−Pre-drug latency)]×100. Each value is expressed as the mean of data obtained from six mice±standard error.
Data was expressed as the mean±standard error. Statistical analyses were performed by the two-tailed Student's t test for comparison of two groups and by a one-way analysis of variance followed by a Bonferroni multiple-comparison test for comparison of more than two groups. A P value of <0.05 was considered statistically significant.

[4] abbreviates: 3 mg/kg s.c., 15 minutes to 60 minutes after administration.
Setting [5] is: 3 mg/kg s.c., 15 minutes after administration.

“Also recorded” adds a separate entry of the source. Like-named read-outs stand apart in the source and are kept apart here.

In the case of `CC[C@@H]1CN2CC[C@@]3(O)C(=Nc4cccc(OC)c43)[C@@H]2C[C@@H]1/C(=C\OC)C(=O)OC` [7-hydroxymitragynine], the antinociceptive action entry in the series on mice is reported as “remarkable antinociceptive action”. Also, the “effect on contraction induced by electrical stimulation” value in the series on opioid receptors is on record as “inhibited contraction induced by electrical stimulation”.

Turning to `CC[C@@H]1CN2CC[C@@]34OCC[C@@]3(Nc3cccc(OC)c34)[C@@H]2C[C@@H]1/C(=C\OC)C(=O)OC` [MGM-30], in series [1], the “hMOR agonist (% DAMGO)” value stood at 46.2 % DAMGO. For the same compound, in series [2], the “Metabolic stability Ms human (% remaining)” value was 92 % remaining and the “metabolic stability compared to formula (III), in words” value is given as “remarkably high metabolic stability”. Besides, the “Metabolic stability Ms rat (% remaining)” value in series [3] was determined as 43 % remaining. Besides, at human μ-opioid receptors, the “binding affinity for human μ-opioid receptors relative to MGM-9 (formula (III))” value is listed as “about 30 fold” and the Ki – broadly, a measure of affinity in units of concentration, obtained from inhibition or displacement – is 0.12 nM. In the series on ddY strain mice (0.3 mg/kg s.c., 15 minutes to 30 minutes after administration), the “analgesic action (% MPE)” value is reported as “about 95%”. Further, the “time after administration until which the analgesic action was sustained” value in the series on ddY strain mice (1 mg/kg and 3 mg/kg s.c.) is 90 min. Besides, the “analgesic action (% MPE)” value with ddY strain mice (1 mg/kg s.c., 15 minutes to 60 minutes after administration) amounted to 100%. The “analgesic action (% MPE)” value in the series on ddY strain mice (setting [4]) is 100%. In the series on ddY strain mice (s.c.), the “analgesic action relative to the compound of formula (III) (MGM-9)” value is listed as “approximately 3 fold”, the “time after administration at which the maximum analgesic action was expressed” value is 15 min and the “time after administration at which the analgesic action returned to the vehicle level” value stood at 180 min. Further, the “analgesic action in words” value in the series with ddY strain mice was “dose-dependent analgesic action; also recorded: most potent analgesic action and had the longest duration of action”. In addition, the “analgesic action in words” value with ddY strain mice (listed as formula (I)) is “potent analgesic action in a dose-dependent manner”.

Take `CC[C@@H]1CN2CC[C@@]34OCCO[C@@]3(Nc3ccc(F)c(OC)c34)[C@@H]2C[C@@H]1/C(=C\OC)C(=O)OC` [MGM-9, reference compound]: the “hMOR agonist (% DAMGO)” value in series [1] worked out at 49.0 % DAMGO. Besides, in series [2], the “Metabolic stability Ms human (% remaining)” value is reported as 57 % remaining. In series [3], the “Metabolic stability Ms rat (% remaining)” value is given as 3 % remaining. Further, the Ki on human μ-opioid receptors was determined as 3.5 nM. Besides, the “analgesic action (% MPE)” value was determined as 100% with ddY strain mice (1 mg/kg s.c., 15 minutes after administration); 100% with ddY strain mice (setting [5]); 100% in the series with ddY strain mice (setting [4]). The “time after administration until which the analgesic action was sustained” value in the series on ddY strain mice (3 mg/kg s.c.) stood at 120 min. In addition, the “time after administration at which the maximum analgesic action was expressed” value in the series on ddY strain mice (s.c.) came out at 15 min. Besides, in the series on ddY strain mice, the “analgesic action in words” value is “dose-dependent analgesic action”. Also, the “time after administration at which the analgesic action returned to the vehicle level” value in the series with ddY strain mice (s.c.) was “One hundred and eighty”.

Regarding `CC[C@@H]1CN2CC[C@@]34OCCC[C@@]3(Nc3cccc(OC)c34)[C@@H]2C[C@@H]1/C(=C\OC)C(=O)OC` [MGM-29], the “hMOR agonist (% DAMGO)” value in series [1] is 45.9 % DAMGO. Also, in series [2], the “Metabolic stability Ms human (% remaining)” value was determined as 78 % remaining and the “metabolic stability compared to formula (III), in words” value is on record as “remarkably high metabolic stability”. Further, the “Metabolic stability Ms rat (% remaining)” value in series [3] turned out to be 36 % remaining. Further, at human μ-opioid receptors, the “binding affinity for human μ-opioid receptors relative to MGM-9 (formula (III)), in words” value is recorded as “comparable to that of MGM-9” and the Ki is 4.9 nM. Besides, at human μ-opioid receptors (listed as formula (II)), the “binding affinity for human μ-opioid receptors relative to MGM-9 (formula (III)), in words” value was “comparable to that of the compound represented by the formula (III)”. In the series with ddY strain mice (setting [5]), the “analgesic action (% MPE)” value is “about 20%”. Also, the “analgesic action in words” value in the series with ddY strain mice was “limited analgesic action; also recorded: dose-dependent analgesic action”. The “analgesic action in words” value in the series with ddY strain mice (listed as formula (II)) is on record as “exhibited an analgesic action, although the action was determinative”.

Values taken from patent US9957262B2, “Opioid analgesic” (NATIONAL UNIVERSITY CORPORATION CHIBA UNIVERSITY, priority 2013, dated 2018).
